# Assay results from article PMC10298926, “Biophysical Characterization of the Binding Mechanism between the MATH Domain of SPOP and Its Physiological Partners” (International Journal of Molecular Sciences, 2023).
# Where a SMILES comes first, the peptide text is derived from it.
# Experiments:
# SPOP MATH D131A [1] = molecular target: SPOP MATH D131A (Homo sapiens, UniProt O43791, D130A, form not given); experiment: Stopped-flow pseudo-first-order binding kinetics; conditions: dansylated Puc, 298 K
# Description: (§1) To quantitatively address the role of specific residues in the binding mechanism of SPOP MATH, we resorted to taking advantage of the site-directed mutagenesis and generated ten site-directed mutants corresponding to the residues located in the binding pocket of the SPOP MATH domain. In particular, we produced a set of single mutants where residues R71, Y88, F103, Y124, F125, K130, D131, W132, F134, and K135 were substituted with alanine.
# (§2) Binding kinetic experiments were performed on an Applied Photophysics DX-17MV stopped-flow apparatus (Applied Photophysics, Leatherhead, UK). Pseudo-first-order binding experiments were performed by mixing a constant concentration (2 μM) of MATH domain with increasing dansylated peptides concentrations, from 2 to 10 μM of Puc and MacroH2A, and 2 to 40 µM of PTEN. The samples were excited at 280 nm, and the emission fluorescence was recorded by using a bandpass 320 nm cutoff filter. The experiments were performed at 298 K. For ionic strength dependence with Puc and MacroH2A, the buffers used were 50 mM sodium-HEPES, pH 7.2, supplemented with 50 mM, 100 mM, 200 mM, or 500 mM of sodium chloride (NaCl). For the PTEN binding salt dependence experiments, lower concentrations of salt were added for the previous buffer list mentioned (10 mM, 25 mM, and 50 mM of sodium chloride). For each acquisition, five traces were collected, averaged, and satisfactorily fitted to a single exponential equation.
# SPOP MATH F134A = SPOP MATH F134A (Homo sapiens, UniProt O43791, F133A, form not given); experiment: Stopped-flow pseudo-first-order binding kinetics; conditions: dansylated Puc, 298 K
# Description: as §1, §2
# SPOP MATH K135A [2] = molecular target: T1, SPOP MATH K135A (Homo sapiens, UniProt O43791, C159S/C44S/C68S/C93S/K134A); experiment: Stopped-flow pseudo-first-order binding kinetics; conditions: dansylated Puc, 298 K
# T1 construct: engineered MATH domain of SPOP protein (residues 1–182); His-tag; made in house; host or cells: Escherichia coli BL21 (DE3)
# Description: as §1, §2
# SPOP MATH Y125A [3] = molecular target: T2, SPOP MATH Y125A (Homo sapiens, UniProt O43791, Y123A, form not given); experiment: Stopped-flow pseudo-first-order binding kinetics; conditions: dansylated Puc, 298 K
# Description: as §1, §2
# SPOP MATH Y88A = SPOP MATH Y88A (Homo sapiens, UniProt O43791, Y87A, form not given); experiment: Stopped-flow pseudo-first-order binding kinetics; conditions: dansylated Puc, 298 K
# Description: as §1, §2
# SPOP MATH D131A [4] = molecular target: T3, SPOP MATH D131A (Homo sapiens, UniProt O43791, C159S/C23S/C44S/C68S/C93S/D130A); experiment: Stopped-flow displacement; format: binding
# T3 construct: engineered MATH domain of SPOP protein (residues 1–182); His-tag; made in house; host or cells: Escherichia coli BL21 (DE3)
# T3 sequence (O43791 1-182 C23S/C44S/C68S/C93S/D130A/C159S): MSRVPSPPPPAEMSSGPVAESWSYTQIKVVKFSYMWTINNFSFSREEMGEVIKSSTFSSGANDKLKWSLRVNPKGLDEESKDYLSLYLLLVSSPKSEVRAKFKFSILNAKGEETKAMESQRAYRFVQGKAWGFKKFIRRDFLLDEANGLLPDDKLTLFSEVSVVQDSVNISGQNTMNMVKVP
# Description: as §1
# (§3) Microscopic dissociation rate constants (koff) were directly measured by performing displacement experiments on an Applied Photophysics DX-17MV stopped-flow apparatus (Applied Photophysics). A preincubated complex of MATH domain and dansylated peptides at a constant concentration (both 8 µM) was rapidly mixed with an excess of nondansylated peptides (50 μM). The samples were excited at 280 nm and fluorescence emission was collected by using a 330 ± 30 nm bandpass filter. The experiments were performed at 298 K in the same buffer used for the binding experiments. The observed rate constants were calculated from the average of five single traces. The observed kinetics were consistent with a single exponential decay.
# SPOP MATH K130A = molecular target: T4, SPOP MATH K130A (Homo sapiens, UniProt O43791, C159S/C23S/C44S/C68S/C93S/K129A); experiment: Stopped-flow displacement; format: binding
# T4 construct: engineered MATH domain of SPOP protein (residues 1–182); His-tag; made in house; host or cells: Escherichia coli BL21 (DE3)
# T4 sequence (O43791 1-182 C23S/C44S/C68S/C93S/K129A/C159S): as the sequence (O43791 1-182 C23S/C44S/C68S/C93S/D130A/C159S) above, with K129A, A130D counted along it
# Description: as §1, §3
# SPOP MATH K135A [5] = molecular target: T1, SPOP MATH K135A; experiment: Stopped-flow displacement; format: binding; conditions: displacement of dansylated Puc, 298 K
# Description: as §1, §3
# Target sequence in this assay (O43791 1-182 C44S/C68S/C93S/K134A/C159S): as the sequence (O43791 1-182 C23S/C44S/C68S/C93S/D130A/C159S) above, with S23C, A130D, K134A counted along it
# SPOP MATH Y125A [6] = molecular target: T2, SPOP MATH Y125A; experiment: Stopped-flow displacement; format: binding; conditions: displacement of dansylated Puc, 298 K
# Description: as §1, §3
# Target sequence in this assay (O43791 1-182 Y123A, form open): as the sequence (O43791 1-182 C23S/C44S/C68S/C93S/D130A/C159S) above, with S23C, S44C, S68C, S93C, Y123A, A130D, S159C counted along it
smiles,measurement,setting,value
CC(C)[C@H](NC(=O)[C@H](CCC(=O)O)NC(=O)[C@H](CC(=O)O)NS(=O)(=O)c1cccc2c(N(C)C)cccc12)C(=O)N[C@H](C(=O)N[C@@H](CO)C(=O)N[C@H](C(=O)N[C@H](C(=O)N[C@@H](CO)C(=O)N[C@@H](CO)C(=O)N[C@@H](CO)C(=O)O)[C@@H](C)O)[C@@H](C)O)[C@@H](C)O [Puc] (HELM PEPTIDE1{[CN(C)c1cccc2c(S(=O)(=O)[*:2])cccc12].D.E.V.T.S.T.T.S.S.S}$$$$V2.0),Kd,SPOP MATH D131A [1]; kinetic KD from kon and koff,13.3 ± 0.2 µM
same,kon,"SPOP MATH D131A [1]; stopped-flow, 2 µM MATH domain",1.82e+07 ± 100000 M⁻¹ s⁻¹
same,Kd,SPOP MATH F134A; kinetic KD from kon and koff,1.7 ± 0.1 µM
same,kon,"SPOP MATH F134A; stopped-flow, 2 µM MATH domain",9.4e+06 ± 200000 M⁻¹ s⁻¹
same,Kd,SPOP MATH K135A [2]; kinetic KD from kon and koff,7.2 ± 0.4 µM
same,kon,"SPOP MATH K135A [2]; stopped-flow, 2 µM MATH domain",6.3e+06 ± 500000 M⁻¹ s⁻¹
same,Kd,SPOP MATH Y125A [3]; kinetic KD from kon and koff,11.7 ± 0.2 µM
same,kon,"SPOP MATH Y125A [3]; stopped-flow, 2 µM MATH domain",6.71e+06 ± 20000 M⁻¹ s⁻¹
same,Kd,SPOP MATH Y88A; kinetic KD from kon and koff,21 ± 4 µM
same,kon,"SPOP MATH Y88A; stopped-flow, 2 µM MATH domain",1.44e+07 ± 800000 M⁻¹ s⁻¹
same,koff,SPOP MATH D131A [4],241 ± 1 s⁻¹
same,koff,SPOP MATH K130A,123 ± 16 s⁻¹
same,koff,SPOP MATH K135A [5],45.2 ± 0.4 s⁻¹
same,koff,SPOP MATH Y125A [6],78.0 ± 0.2 s⁻¹
